Positions of bridges follow the written chain, without caps; N, C: chain ends. Non-standard residues stand in square brackets, D forms with d. No end group written: not given here. dCit = NC(=O)NCCC[C@@H](N)C(=O)O

21 substances from patent US9896512B2, “Antitumor peptide derived from a complementarity determining region of a humanized monoclonal antibody to NAP12B transporter” (Recepta Biopharma S.A., priority 2010, dated 2018) can be followed below.

For one assay, the system named is tumor cells. Put plainly: Antitumor activity of RebMab 200 CDR peptides. It counts as cell-based. The source says: (§1) Details of the in vitro tumor cell growth, cytotoxicity tests, determination of viable cells and in vivo protection experiments with B16F10 cells in a mouse metastatic model are described in Polonelli et al. (PLoS One. 3(6):e2371, 2008) and Dobroff et al. (Translat. Onc., 3: 204-217, 2010).
Amidated RebMab 200 CDR H2 (SEQ ID NO: 7) shares up to sixteen (16) identical amino acids with similar H2 fragments from several murine antibodies of various specificities.

Assay [1] relates to B16F10-Nex2 melanoma cells. Briefly: In vivo protection against lung colonization (metastatic melanoma model). On the set-up: species or system C57B1/6 mice. The settings on record: 250 μg i.p. on days 1, 3, 5, 7, 9, 11; lungs after 22 days. On the procedure:
as §1
Peptides RB9 and RB10 along with the apoptotic peptide A4H3, a true microantibody of cytotoxic anti-melanoma mAb (A4) (Dobroff et al., Translat. Onc., 3: 204-217, 2010), were tested for their protective effects against lung colonization by B16F10-Nex2 melanoma cells (2×105) injected intravenously in C57B1/6 mice (6 animals/group). Peptides were intraperitoneally administered (250 μg i.p.) on days 1, 3, 5, 7, 9, 11 after tumor cell challenge. Lungs of peptide-treated animals are shown in FIG. 5 after 22 days of tumor challenge. As noticed, peptide treatment was interrupted 10 days before animal sacrifice.
In vivo protection by peptides RB9 and RB10 (and A4H3 control) against lung colonization by B16F10-Nex2 melanoma cells (2×105) injected intravenously in C57B1/6 mice (6 animals/group) is shown in FIG. 6. The other 5 CDRs of RebMab200 (SEQ ID NOs: 7, 10, 11, 12, 13) were unprotective in vivo. Peptides were administered in the same way as described above, and the number of lung nodules was determined.

Assay [2] concerns B16F10-Nex2 melanoma cells. Briefly: Cell migration, wound healing assay. The settings on record: peptide 500 μM, 24 hours after wounding. Format: cell-based, murine. On the procedure: For the migration studies, 5×10^5 or 10^6 cells were distributed on 6-well plates and let them to adhere for 2 hours at 37° C./5% CO2. The culture medium was changed and the peptide was added at 500 μM overnight. The cell monolayer was “wounded” with a P1000 tip and incubated for 24 hours. Images of untreated cells (control) and peptide treated cells were captured with a JENOPTIK camera. Cell numbers (nuclei) were determined using the Pixcavator software version 5.0.
Viable B16F10-Nex2 cells (5×105)/well were distributed on a 6-well culture plate and incubated overnight at 37° C. in a humidified chamber with 5% CO2. A P1000 tip was used for wounding the cell monolayer and the image was immediately captured (0 hour) using a camera (Jenoptik) with the software Progres 2.8. After 24 hours a new image of the same field was obtained and recorded (24 hours).
Viable B16F10-Nex2 cells (3×10^5)/well were distributed in a 12-well culture plate and incubated for 4 hours at 37° C. in a humidified chamber with 5% CO2. Fresh medium containing RB10 (SEQ ID NO: 9) at different concentrations was added to the wells and incubated again for 4 hours. The monolayer wounding was performed as described above in Example 12, and images obtained accordingly. After 24 hours a new image in the same field was obtained and recorded (24 hours). […] Magnification ×100.

For assay [3], the system named is melanoma B16F10-Nex2 cells. Put plainly: Alanine scanning series cell adhesion assay (MTT after trypsin-EDTA). It counts as cell-based, murine. Conditions: 1 mM peptide, 24 hours. On the procedure: The peptide RB10 (SEQ ID NO: 9) was engineered to replace each amino acid by alanine using Ala-scan methodology, and thus help evaluate the role of each amino acid on biological effect, specifically on the hyper-adherence observed with 1 mM peptide.
For this purpose, viable melanoma B16F10-Nex2 cells (1×10^4)/well were distributed on a 96-well culture plate and incubated for 4 hours. Fresh media containing 1 mM of the alanine-scanning series for RB10 was added and incubated for 24 hours. Treated cells were detached with 30 μl/well of trypsin-EDTA for five minutes at 37° C. and gently washed with PBS. Cells were incubated for 4 hours with 0.5 mg/mL of MTT [3-(4,5-Dimethylthiazol-2-yl)-2,5-diphenyltetrazolium bromide] in fresh media and the formazan crystals were solubilized adding 1 volume of a 10% SDS solution overnight. Intensity was measured using a plate reader at 570 nm. […] The 100% value for each peptide represented the treated cells that had not been trypsinized.

Take YTSSLYS-NH2 [RB13]: the antitumor activity entry in the assay with tumor cells is recorded as “no antitumor activity”. In addition, the “protection against lung colonization (lung nodules)” value (shortened to “protection”) in assay [1] was “unprotective”.
Consider CARGETA(dCit)ATFAYWGQGC-NH2 [RB9 M4], for which the “inhibition of cell migration (words)” value in assay [2] was “partial inhibition”.
Same read-out and setting: then “C(dA)RGETA(dCit)AT(dF)AYWGQ(dA)C-NH2 (C[dA]RGETA[dCit]AT[dF]AYWGQ[dA]C-NH2; disulfide 1-18; N-terminus assumed; SMILES C[C@@H]1NC(=O)[C@H]([C@@H](C)O)NC(=O)[C@H](CCC(=O)O)NC(=O)CNC(=O)[C@H](CCCNC(=N)N)NC(=O)[C@@H](C)NC(=O)[C@@H](N)CSSC[C@@H](C(N)=O)NC(=O)[C@@H](C)NC(=O)[C@H](CCC(N)=O)NC(=O)CNC(=O)[C@H](Cc2c[nH]c3ccccc23)NC(=O)[C@H](Cc2ccc(O)cc2)NC(=O)[C@H](C)NC(=O)[C@@H](Cc2ccccc2)NC(=O)[C@H]([C@@H](C)O)NC(=O)[C@H](C)NC(=O)[C@@H](CCCNC(N)=O)NC1=O) [RB9 M2]”, with “partial inhibition”.
As to CARGATARATFAYWGQG-NH2 [RB10 A5], in assay [3], the trypsin/EDTA-resistant cell adherence entry was “normally detached”.
Turning to AARGETARATFAYWGQG-NH2 [RB10 A1], the trypsin/EDTA-resistant cell adherence result in assay [3] is recorded as “normally detached”. In addition, the “inhibition of cell migration (words)” value in assay [2] is “non-inhibition”.
For the substance CFIARAGWYATEARGGQC-NH2 [RB9 Sc3], the “inhibition of cell migration (words)” value in assay [2] is given as “partial inhibition”.
As for GYTFTGYNIH-NH2 [RB11], in the assay with tumor cells, the antitumor activity entry is reported as “no antitumor activity”. Moreover, in assay [1], the “protection” value is “unprotective”.
As to C(dA)RGETARATFAYWGQGC-NH2 [RB9 M5], in assay [2], the “inhibition of cell migration (words)” value is given as “partial inhibition”.
On to SASQDIGNFLN-NH2 [RB12], for which, in the assay with tumor cells, the antitumor activity entry is “no antitumor activity”. Further, the “protection” value in assay [1] is “unprotective”.
In the case of “C(dA)RGETA(dCit)ATFAYWGQ(dA)C-NH2 (C[dA]RGETA[dCit]ATFAYWGQ[dA]C-NH2; disulfide 1-18; N-terminus assumed; SMILES C[C@@H]1NC(=O)[C@H](Cc2ccccc2)NC(=O)[C@H]([C@@H](C)O)NC(=O)[C@H](C)NC(=O)[C@@H](CCCNC(N)=O)NC(=O)[C@H](C)NC(=O)[C@H]([C@@H](C)O)NC(=O)[C@H](CCC(=O)O)NC(=O)CNC(=O)[C@H](CCCNC(=N)N)NC(=O)[C@@H](C)NC(=O)[C@@H](N)CSSC[C@@H](C(N)=O)NC(=O)[C@@H](C)NC(=O)[C@H](CCC(N)=O)NC(=O)CNC(=O)[C@H](Cc2c[nH]c3ccccc23)NC(=O)[C@H](Cc2ccc(O)cc2)NC1=O) [RB9 M1]”, the “inhibition of cell migration (words)” value in assay [2] is on record as “partial inhibition”.
In the case of “C(dA)RGETARATFAYC-NH2 (C[dA]RGETARATFAYC-NH2; disulfide 1-14; N-terminus assumed; SMILES C[C@@H]1NC(=O)[C@H](CCCNC(=N)N)NC(=O)[C@H](C)NC(=O)[C@H]([C@@H](C)O)NC(=O)[C@H](CCC(=O)O)NC(=O)CNC(=O)[C@H](CCCNC(=N)N)NC(=O)[C@@H](C)NC(=O)[C@@H](N)CSSC[C@@H](C(N)=O)NC(=O)[C@H](Cc2ccc(O)cc2)NC(=O)[C@H](C)NC(=O)[C@H](Cc2ccccc2)NC(=O)[C@H]([C@@H](C)O)NC1=O) [RB9 M3]”, the “inhibition of cell migration (words)” value in assay [2] was “partial inhibition”.
Regarding CGTFEYRAQAGWAGRTA-NH2 [RB10 Scramble], in assay [2], the “inhibition of cell migration (words)” value was “partial inhibition”.
For the substance “CARGETA(dCit)AT(dF)AYWGQ(dA)-NH2 (CARGETA[dCit]AT[dF]AYWGQ[dA]-NH2; N-terminus assumed; SMILES C[C@H](NC(=O)[C@@H](NC(=O)[C@H](CCC(=O)O)NC(=O)CNC(=O)[C@H](CCCNC(=N)N)NC(=O)[C@H](C)NC(=O)[C@@H](N)CS)[C@@H](C)O)C(=O)N[C@H](CCCNC(N)=O)C(=O)N[C@@H](C)C(=O)N[C@H](C(=O)N[C@H](Cc1ccccc1)C(=O)N[C@@H](C)C(=O)N[C@@H](Cc1ccc(O)cc1)C(=O)N[C@@H](Cc1c[nH]c2ccccc12)C(=O)NCC(=O)N[C@@H](CCC(N)=O)C(=O)N[C@H](C)C(N)=O)[C@@H](C)O) [RB10 M1]”, in assay [2], the “inhibition of cell migration (words)” value is “partial inhibition”.
As for CAAGETARATFAYWGQG-NH2 [RB10 A3], in assay [3], the trypsin/EDTA-resistant cell adherence result is given as “normally detached”. Moreover, in assay [2], the “inhibition of cell migration (words)” value is “partial inhibition”.
For the substance “CGTFEYRAQAGWAGRTAC-NH2 (disulfide 1-18; N-terminus assumed; SMILES C[C@@H]1NC(=O)[C@H](Cc2c[nH]c3ccccc23)NC(=O)CNC(=O)[C@H](C)NC(=O)[C@H](CCC(N)=O)NC(=O)[C@H](C)NC(=O)[C@H](CCCNC(=N)N)NC(=O)[C@H](Cc2ccc(O)cc2)NC(=O)[C@H](CCC(=O)O)NC(=O)[C@H](Cc2ccccc2)NC(=O)[C@H]([C@@H](C)O)NC(=O)CNC(=O)[C@@H](N)CSSC[C@@H](C(N)=O)NC(=O)[C@H](C)NC(=O)[C@H]([C@@H](C)O)NC(=O)[C@H](CCCNC(=N)N)NC(=O)CNC1=O) [RB9 Scramble]”, the “inhibition of cell migration (words)” value in assay [2] is given as “partial inhibition”.
Same read-out and setting: then “C(dA)RGETA(dCit)ATFAYWGQ(dA)-NH2 (C[dA]RGETA[dCit]ATFAYWGQ[dA]-NH2; N-terminus assumed; SMILES C[C@H](NC(=O)[C@H](Cc1ccccc1)NC(=O)[C@@H](NC(=O)[C@H](C)NC(=O)[C@@H](CCCNC(N)=O)NC(=O)[C@H](C)NC(=O)[C@@H](NC(=O)[C@H](CCC(=O)O)NC(=O)CNC(=O)[C@H](CCCNC(=N)N)NC(=O)[C@@H](C)NC(=O)[C@@H](N)CS)[C@@H](C)O)[C@@H](C)O)C(=O)N[C@@H](Cc1ccc(O)cc1)C(=O)N[C@@H](Cc1c[nH]c2ccccc12)C(=O)NCC(=O)N[C@@H](CCC(N)=O)C(=O)N[C@H](C)C(N)=O) [RB10 M4]”, with “partial inhibition”.
Take CARGEAARATFAYWGQG-NH2 [RB10 A6]: in assay [3], the trypsin/EDTA-resistant cell adherence result is “high trypsin/EDTA-resistant cell adherence”. Also, the “inhibition of cell migration (words)” value in assay [2] is “partial inhibition”.
Take “YWCRAAFTTEAGRACQGG-NH2 (disulfide 3-15; N-terminus assumed; SMILES C[C@@H]1NC(=O)[C@H](C)NC(=O)[C@H](CCCNC(=N)N)NC(=O)[C@@H](NC(=O)[C@H](Cc2c[nH]c3ccccc23)NC(=O)[C@@H](N)Cc2ccc(O)cc2)CSSC[C@@H](C(=O)N[C@@H](CCC(N)=O)C(=O)NCC(=O)NCC(N)=O)NC(=O)[C@H](C)NC(=O)[C@H](CCCNC(=N)N)NC(=O)CNC(=O)[C@H](C)NC(=O)[C@H](CCC(=O)O)NC(=O)[C@H]([C@@H](C)O)NC(=O)[C@H]([C@@H](C)O)NC(=O)[C@H](Cc2ccccc2)NC1=O) [RB9 Sc2]”: the “inhibition of cell migration (words)” value in assay [2] was “partial inhibition”.
Regarding CARGETAAATFAYWGQG-NH2 [RB10 A8], the trypsin/EDTA-resistant cell adherence result in assay [3] is “normally detached”. Moreover, in assay [2], the “inhibition of cell migration (words)” value is reported as “partial inhibition”.
With CARAETARATFAYWGQG-NH2 [RB10 A4], the trypsin/EDTA-resistant cell adherence entry in assay [3] is recorded as “high trypsin/EDTA-resistant cell adherence”. Moreover, the “inhibition of cell migration (words)” value in assay [2] is reported as “partial inhibition”.
Consider QQYSKLPLT-NH2 [RB14], for which the antitumor activity result in the assay with tumor cells was “no antitumor activity”. The “protection” value in assay [1] is listed as “unprotective”.
